Read-outs that look alike come from different tables or passages of the source.
Tests used:
[1] = 25 mg/ml oxybutynin reservoir, 20 μm polybutadiene film, cited from earlier work
clinical [2] = settings: human, in vivo, topical or ocular; for concentration at 24 h: after 24 hours; for concentration at 12 h: after 12 hours
Method: (§1) Addition time was approximately 45 minutes.
No in-line adhesive was present. […] There was a 3M acrylate in-line adhesive present.
The in vivo plasma levels of oxybutynin were measured for two body sites. A 10 cm^2 device was worn on the penis for 101/2 hours and two 10 cm^2 devices were worn on the inner thigh for 24 hours. A control sample was drawn before applying the systems.
The other subject achieved a plasma level of 0.7 ng/mL after 12 hours, and the plasma level was 0.8 ng/mL after 24 hours.

[3] = type: in vivo, human
Method: as §1

clinical [4] = type: in vivo, human; settings: system worn for 24 hours
Method: Therapeutic blood levels from about 0.5 ng/ml to about 3.0 ng/ml can be obtained from administration rates in the range of 0.08 mg/hr to 0.5 mg/hr. […] Therapeutic blood levels can be achieved within approximately 1-5 hours, and peak blood concentrations are achieved at about 3 hours when the system is worn for 24 hours. […] The system application is easily adapted for shorter or longer duration treatments, but generally 24 hours is the nominal duration for treatment.

[5] = plasma oxybutynin concentration, two 10 cm^2 systems on inner thigh
[6] = plasma oxybutynin level, additional subject (the other), two 10 cm^2 systems on inner thigh

Compound: CCN(CC)CC#CCOC(=O)C(O)(c1ccccc1)C1CCCCC1 (stereo not shown) [oxybutynin, 4-diethylamino-2-butynylphenylcyclohexylglycolate]
- in vitro release rate ([1]; 49 cm^2 area): ~10 μg/cm^2 /hr
- in vitro release over 24 hours ([1]; over 24 hours through a 49 cm^2 area): approximately 12 mg
- concentration at 9 h (clinical [2]; plasma oxybutynin concentration, additional subject (one), two 10 cm^2 systems on inner thigh, after 9 hours): 2 ng/mL
- concentration at 24 h (clinical [2]; plasma oxybutynin concentration, additional subject (one), two 10 cm^2 systems on inner thigh): 1.7 ng/mL
- concentration at 12 h (clinical [2]; [5]): 0.9 ng/mL
- concentration at 24 h (clinical [2]; [5]): 1.1 ng/mL
- concentration at 4 h (clinical [2]; plasma oxybutynin level, 10 cm^2 device on the penis, within 4 hours): 2 ng/mL
- concentration at 12 h (clinical [2]; [6]): 0.7 ng/mL
- concentration at 24 h (clinical [2]; [6]): 0.8 ng/mL
- Measured Drug Loss ([3]; subject 1, inner thigh): 5.8 mg/20 cm^2 /day
- Measured Drug Loss ([3]; subject 2, inner thigh): 8.6 mg/20 cm^2 /day
- Measured Drug Loss ([3]; subject 3, chest): 6.7 mg/20 cm^2 /day
- Measured Drug Loss ([3]; subject 4, abdomen): 7.2 mg/20 cm^2 /day
- Measured Drug Loss ([3]; subject 5, penis): 19.2 mg/20 cm^2 /day
- Tmax (clinical [4]; human, in vivo, topical or ocular, read-out: time of peak blood concentrations): ~3 h
- time to achieve therapeutic blood levels (clinical [4]): 1 to 5 h

— patent US5411740A (ALZA Corporation, priority 1994, dated 1995)
